Results taken from ChEMBL document CHEMBL3638788, “Benzoxazines, benzothiazines, and related compounds having NOS inhibitory activity” (2013).
pIC50: −log10 of the molar value.

Legend:
Nitric oxide synthase 1 = Nitric oxide synthase 1 (Homo sapiens, UniProt P29475); experiment: (§1) Enzyme Assay: Primary stock solutions of test compounds at a concentration of 6 mM were prepared from the 2 to 5 mg powder. The primary stock solutions of each test compound were prepared freshly in distilled water on the day of study to obtain a final concentration of 6 mM. For determination of IC50 values, 12 test compound concent rations were prepared as 3-fold serial dilutions. Concentration range of test compound utilized for nNOS were 0.001 to 300 μM and for eNOS were 0.003 to 10 00 μM. The vehicle of the test compound or inhibitor was used as blank control. For non-specific activity, 100 μM L-NMMA was used. Runs using the IC50 concentration of L-NAME were done in parallel as controls. All incubations are performed in duplicate.
Nitric oxide synthase 3 = target: T1, Nitric oxide synthase 3 (Homo sapiens, UniProt P29474); experiment: as §1
T1 sequence (P29474 whole entry): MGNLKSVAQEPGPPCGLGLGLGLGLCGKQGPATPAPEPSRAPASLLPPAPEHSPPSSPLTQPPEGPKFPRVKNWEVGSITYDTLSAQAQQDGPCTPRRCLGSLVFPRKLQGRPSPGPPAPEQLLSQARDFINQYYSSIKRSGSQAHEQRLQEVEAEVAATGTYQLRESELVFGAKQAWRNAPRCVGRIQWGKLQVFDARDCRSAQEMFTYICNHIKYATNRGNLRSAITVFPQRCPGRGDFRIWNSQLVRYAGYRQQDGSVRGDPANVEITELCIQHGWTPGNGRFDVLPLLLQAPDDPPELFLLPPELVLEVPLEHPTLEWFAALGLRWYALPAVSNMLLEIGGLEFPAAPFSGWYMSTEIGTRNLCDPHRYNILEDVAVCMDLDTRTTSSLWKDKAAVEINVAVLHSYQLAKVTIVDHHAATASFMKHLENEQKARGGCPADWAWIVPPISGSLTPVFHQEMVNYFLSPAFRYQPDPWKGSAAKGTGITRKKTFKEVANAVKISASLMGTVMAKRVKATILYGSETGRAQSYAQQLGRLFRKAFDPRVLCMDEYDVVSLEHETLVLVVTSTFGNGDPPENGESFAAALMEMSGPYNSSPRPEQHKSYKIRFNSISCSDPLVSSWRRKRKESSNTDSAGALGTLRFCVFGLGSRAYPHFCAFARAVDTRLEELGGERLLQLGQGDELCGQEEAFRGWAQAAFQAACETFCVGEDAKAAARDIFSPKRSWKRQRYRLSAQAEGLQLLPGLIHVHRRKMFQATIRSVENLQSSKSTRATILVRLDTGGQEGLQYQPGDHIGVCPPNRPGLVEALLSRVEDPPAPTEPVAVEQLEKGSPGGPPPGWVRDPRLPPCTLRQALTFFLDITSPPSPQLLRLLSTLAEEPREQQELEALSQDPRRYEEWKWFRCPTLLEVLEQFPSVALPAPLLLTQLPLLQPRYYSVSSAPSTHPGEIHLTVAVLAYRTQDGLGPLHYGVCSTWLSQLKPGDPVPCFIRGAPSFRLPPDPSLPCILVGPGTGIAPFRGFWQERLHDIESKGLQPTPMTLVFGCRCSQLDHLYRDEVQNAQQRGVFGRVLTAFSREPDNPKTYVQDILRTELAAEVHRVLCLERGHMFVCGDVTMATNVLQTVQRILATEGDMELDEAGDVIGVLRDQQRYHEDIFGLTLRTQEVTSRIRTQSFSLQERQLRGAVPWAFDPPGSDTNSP

[1] = target: Nitric oxide synthase, inducible (Homo sapiens, UniProt P35228); experiment: Enzyme Assay: Recombinant human inducible NOS (iNOS) was produced in Baculovirus-infected Sf9 cells (ALEXIS). In a radiometric method, NO synthase activity was determined by measuring the conversion of [3H]L-arginine to [3H]L-citrulline. To measure iNOS, 10 uL of enzyme was added to 100 uL of 100 mM HEPES, pH=7.4, containing 1 mM CaCl2, 1 mM EDTA, 1 mM dithiothreitol, 1 uM FMN, 1 uM FAD, 10 uM tetrahydrobiopterin, 120 uM NADPH, and 100 nM CaM. To measure enzyme inhibition, a 15 uL solution of a test substance was added to the enzyme assay solution, followed by a pre-incubation time of 15 min at RT. The reaction was initiated by addition of 20 uL L-arginine containing 0.25 uCi of [3H] arginine/mL and 24 uM L-arginine. The total volume of the reaction mixture was 150 uL in every well.
Sequence of Nitric oxide synthase, inducible (P35228 whole entry): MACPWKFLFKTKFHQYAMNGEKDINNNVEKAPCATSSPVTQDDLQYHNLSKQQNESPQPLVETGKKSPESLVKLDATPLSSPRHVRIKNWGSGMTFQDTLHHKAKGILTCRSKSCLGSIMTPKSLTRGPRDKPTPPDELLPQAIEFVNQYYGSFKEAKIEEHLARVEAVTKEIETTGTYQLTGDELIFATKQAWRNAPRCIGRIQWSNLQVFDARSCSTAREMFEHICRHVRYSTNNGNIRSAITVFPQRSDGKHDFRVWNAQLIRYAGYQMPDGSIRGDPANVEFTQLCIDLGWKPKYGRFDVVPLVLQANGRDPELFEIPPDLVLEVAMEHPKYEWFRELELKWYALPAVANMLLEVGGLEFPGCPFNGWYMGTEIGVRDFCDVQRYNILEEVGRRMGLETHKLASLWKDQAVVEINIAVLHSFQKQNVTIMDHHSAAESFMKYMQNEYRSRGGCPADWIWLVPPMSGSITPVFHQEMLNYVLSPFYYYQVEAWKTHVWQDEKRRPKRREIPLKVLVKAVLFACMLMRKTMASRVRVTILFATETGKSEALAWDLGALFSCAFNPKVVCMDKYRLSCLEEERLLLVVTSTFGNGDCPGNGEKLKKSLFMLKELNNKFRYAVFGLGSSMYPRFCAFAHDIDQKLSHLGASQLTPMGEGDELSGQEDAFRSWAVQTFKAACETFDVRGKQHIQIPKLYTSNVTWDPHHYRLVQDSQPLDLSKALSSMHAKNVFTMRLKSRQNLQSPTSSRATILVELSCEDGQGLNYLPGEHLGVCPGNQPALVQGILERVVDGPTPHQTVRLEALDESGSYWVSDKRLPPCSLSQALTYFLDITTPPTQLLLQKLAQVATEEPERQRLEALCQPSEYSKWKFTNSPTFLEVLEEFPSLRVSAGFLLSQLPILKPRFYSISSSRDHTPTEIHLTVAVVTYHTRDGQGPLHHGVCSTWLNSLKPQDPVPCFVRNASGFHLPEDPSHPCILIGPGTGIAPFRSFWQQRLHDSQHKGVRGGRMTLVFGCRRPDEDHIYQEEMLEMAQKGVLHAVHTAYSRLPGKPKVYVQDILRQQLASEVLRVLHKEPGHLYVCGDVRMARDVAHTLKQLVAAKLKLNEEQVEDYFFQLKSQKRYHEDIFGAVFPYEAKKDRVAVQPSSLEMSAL

Sequence of Nitric oxide synthase 1 (P29475 whole entry): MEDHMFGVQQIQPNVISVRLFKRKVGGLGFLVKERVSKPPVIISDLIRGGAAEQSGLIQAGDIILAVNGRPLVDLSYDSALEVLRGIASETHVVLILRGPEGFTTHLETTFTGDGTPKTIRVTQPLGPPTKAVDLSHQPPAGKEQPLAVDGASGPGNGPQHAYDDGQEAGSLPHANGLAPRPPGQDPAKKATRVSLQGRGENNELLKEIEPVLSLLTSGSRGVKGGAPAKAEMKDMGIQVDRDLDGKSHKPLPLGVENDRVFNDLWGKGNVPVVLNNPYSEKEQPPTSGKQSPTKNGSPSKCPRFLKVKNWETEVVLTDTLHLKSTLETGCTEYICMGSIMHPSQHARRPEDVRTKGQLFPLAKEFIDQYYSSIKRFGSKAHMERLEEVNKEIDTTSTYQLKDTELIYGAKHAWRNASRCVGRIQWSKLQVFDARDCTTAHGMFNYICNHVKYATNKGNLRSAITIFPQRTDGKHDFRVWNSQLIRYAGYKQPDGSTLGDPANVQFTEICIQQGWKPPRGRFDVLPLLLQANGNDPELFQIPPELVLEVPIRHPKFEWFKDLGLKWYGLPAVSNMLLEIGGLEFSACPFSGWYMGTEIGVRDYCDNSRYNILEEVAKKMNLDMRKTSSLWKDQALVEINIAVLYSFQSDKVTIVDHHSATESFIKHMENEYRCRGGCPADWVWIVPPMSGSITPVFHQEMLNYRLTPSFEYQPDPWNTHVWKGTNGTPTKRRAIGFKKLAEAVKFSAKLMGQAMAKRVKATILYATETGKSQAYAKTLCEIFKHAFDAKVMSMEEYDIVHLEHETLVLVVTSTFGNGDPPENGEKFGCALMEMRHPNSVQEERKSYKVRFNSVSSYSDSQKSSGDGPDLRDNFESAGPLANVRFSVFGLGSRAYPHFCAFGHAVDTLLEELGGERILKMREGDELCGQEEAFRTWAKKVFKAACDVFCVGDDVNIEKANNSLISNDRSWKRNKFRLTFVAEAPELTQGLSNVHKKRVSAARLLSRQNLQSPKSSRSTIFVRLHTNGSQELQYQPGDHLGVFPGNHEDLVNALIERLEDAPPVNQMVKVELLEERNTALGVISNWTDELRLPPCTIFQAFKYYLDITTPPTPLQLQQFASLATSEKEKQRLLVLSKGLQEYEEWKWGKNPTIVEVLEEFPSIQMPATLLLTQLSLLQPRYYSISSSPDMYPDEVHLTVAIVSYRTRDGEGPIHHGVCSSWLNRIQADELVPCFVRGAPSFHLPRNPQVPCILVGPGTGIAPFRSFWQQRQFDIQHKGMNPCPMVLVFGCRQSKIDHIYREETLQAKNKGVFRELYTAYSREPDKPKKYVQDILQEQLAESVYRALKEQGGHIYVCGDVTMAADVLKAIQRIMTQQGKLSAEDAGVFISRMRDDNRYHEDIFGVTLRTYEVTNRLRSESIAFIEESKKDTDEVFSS

| pIC50 (Nitric oxide synthase 1) | pIC50 (Nitric oxide synthase 3) | pIC50 [1] | SMILES |
| --- | --- | --- | --- |
| 5.68 | 4.06 | < 4.00 | CN1CCCC1CCN1C(=O)COc2cc(NC(=N)c3cccs3)ccc21 (stereo not given) |
| 6.37 |  | 4.97 | CN1CCCC1CCN1CCOc2cc(/N=C(\N)c3cccs3)ccc21 (stereo not given) |
